Values joined by “and” are separate entries in the source; they are usually repeats but may differ in a detail not shown here. Equal entries are not always repeated.
Assays:
Homo sapiens [1] = experiment: Evaluation of pharmacokinetic parameters for Valproic acid following single oral administration of Divalproex Sodium tablets or capsules.; format: ADME, organism-based; details: in vivo, dosed compound id 430, dosed compound name DIVALPROEX SODIUM, regimen Single dose, tissue Plasma
Homo sapiens [2] = experiment: Evaluation of pharmacokinetic parameters for Valproic acid following oral administration of Divalproex Sodium.; format: ADME, organism-based; details: in vivo, dosed compound id 431, dosed compound name VALPROATE SALT, tissue Plasma

Tmax (Homo sapiens [1]; dietary status Fasting): 3.3 h and 4 h
Tmax (Homo sapiens [1]; dietary status Fed): 4.8 h and 8 h
t1/2 (Homo sapiens [1]; dose 250 to 1000 mg): 9 to 16 h
CL (Homo sapiens [2]; gender female): 4.7 L/hr/1.73 m2
t1/2 (Homo sapiens [2]; gender male and female): 12 h and 18 h
CL (Homo sapiens [2]; gender male): 4.8 L/hr/1.73 m2
t1/2 (Homo sapiens [2]): 10 to 67 h and 7 to 13 h
SMILES: CCCC(CCC)C(=O)O [VALPROIC ACID]
